Experiments:
Format in all cases: cell-based
[1] = system: JFH-1 based HCVcc; assay: HCVcc infection of DHHs in the presence of HCV inhibitors (FIG. 2D)
From the text: FIG. 2 depicts the results of experiments assessing infection of DHHs derived from hESCs and iPSCs. (A) Detection of HCV proteins in DHHs infected with JFH-1 based HCVcc. DHHs were inoculated with three different preparations of HCVcc at day 13 post-differentiation and cell lysates collected at day 21 for western blot analysis. The anti-NS3 antibody also recognized a non-specific band in the mock infected sample. (B) Immunostaining of infected DHHs. A JFH variant containing a FLAG tag in the NS5A protein was used to infect either Huh-7.5 or DHHs and staining was done with an anti-FLAG antibody. (C) Infection of Huh-7.5 and DHHs as measured by the HCV-dependent fluorescence relocalization assay. Reporter-transduced cells were infected with HCVcc and the cells were fixed for immunofluorescence analysis 72 hours post-infection. For the RFP-NLS-IPS expressing cells, HCV infection leads to complete nuclear translocation of the RFP; for the EGFP-IPS cells, HCV infection leads to redistribution of green fluorescence from a reticulate cytoplasmic pattern to a diffused pattern with a nuclear enrichment. […] The following inhibitors were included in the infection experiments. IFN: interferon-α, 80 units/ml; AR3A: anti-E2 neutralizing antibody, 1 μg/ml; ITX: ITX5061, an SR-BI inhibitor, 1 μM. (E) Comparison of HCVcc infection levels in DHHs and PHHs. PHHs were infected for 8 days to keep the infected days the same between the two cell types (DHHs were infected at day 13 and the lysed at day 21). (F) Infection of DHHs derived from an iPSC line. Differentiation and infection of iPS.K3 were performed as described for H9-derived DHHs (FIG. 1 and FIG. 2A).
All JFH-1 based HCVcc (Mut4-6, SAV, Jc1/GLuc2A, and DEYN-Jc1/GLuc2A) were produced in Huh-7.5 cells as previously described (2005, Lindenbach, et al., Science 309:623-626). Genotype 1b HCVser was obtained from a commercial supplier (Teragenix, Ft. Lauderdale, Fla.). All infections were done by incubating virus inoculum with cells for 6-9 hours before the cells were washed and changed into the appropriate medium for the specific cell type and differentiation stage. For the time course of DHHs permissiveness, infection of each time point was allowed to proceed for exactly 48 hours before cell harvesting and western blotting. Immunofluorescence analysis of HCV receptors and intracellular antigens. Cells were fixed in 4% paraformaldehyde in phosphate-buffered saline (PBS) at room temperature for 10 minutes and blocked with PBGB (PBS containing 10% normal goat serum, and 1% bovine serum albumin (BSA)) at room temperature for 2 hours. Cells were incubated with primary antibodies (anti-CD81, anti-SR-B1, anti-claudin 1 and anti-occludin, diluted in PBG at 1:200) at 4° C. overnight or 2 hours at room temperature. […]

[2] = system: HCVcc; assay: Secretion of HCV core antigen into culture medium by HCVcc-infected DHHs, core ELISA (FIG. 3B); settings: IFN-α 50 units/ml; 48 hours after infection; H9-derived DHHs
Description: FIG. 3 depicts the results of experiments showing that DHHs support persistent infection and secrete infectious HCV particles. (A) Continuous replication of HCVcc in DHHs. Day-10 DHHs were infected with Jc1/GLuc2A for 9 hours before the inoculum was removed and the cells were changed into medium E with or without a cyclophilin inhibitor CsA at 1 μg/ml. Culture supernatants were collected daily to measure luciferase activity. The culture media was replaced with thorough washing every 48 hours and CsA was included every time fresh media was used. Error bars represent standard deviation from triplicate experiments. (B) Secretion of HCV core antigen into the culture medium by infected DHHs. […]
To quantify miR-122 levels, TRIzol extracted RNA samples were reverse transcribed using TaqMan MicroRNA Reverse Transcription kit (Applied Biosystems) and the resulting cDNA served as templates for Real-Time PCR analysis using TaqMan MicroRNA Assay for miR-122 (Applied Biosystems). […]
To verify continuous viral replication during the infection period, the secretion of Gaussia luciferase into the culture media by the DHHs infected with the GLuc reporter virus was monitored using a procedure previously used to monitor persistent HCV infection in microscale PHHs (2010, Floss et al., Proc Natl Acad Sci USA 107:3141-3145). […]

[3] = system: genotype 1b HCVser; assay: Infection of DHHs by patient serum-derived HCV, western blotting (FIG. 7A); settings: IFN-α 50 units/ml; genotype 1b patient serum; 48 hours
From the text: FIG. 7 depicts the results of experiments assessing the direct infection of DHHs by HCV derived from patient serum. (A) Detection of IFN-sensitive HCVser infection by western blotting IFN-α was included in the medium at 50 units/ml when indicated. (B) Visualization of single cell infection events by HCVser using the HCV-dependent fluorescence relocalization assay. Arrows indicate individual cells infected with HCVser and showing nuclear translocation of the RFP. (C) Secretion of HCV core antigen into culture supernatant by HCVser-infected DHHs. Values for core levels in supernatants collected 48 hours post-infection were plotted. IFN-α was included in the medium at 50 units/ml when indicated. Error bars represent standard deviation of replicate experiments. (D) HCVser preferentially infected DHHs over Huh-7.5 cells. […]
Although robust infection of PHHs by HCVcc has been reported (2010, Podevin et al., Gastroenterology 1355-1364; 2010, Ploss et al., Proc Natl Acad Sci USA 107:3141-3145; 2010, Banaudha et al., Hepatology 51:1922-1932), direct infection by HCV derived from patient serum (HCVser) remained inefficient (2010, Podevin et al., Gastroenterology. 139:1355-1364; 1998, Fournier et al., J Gen Virol. 79:2367-2374). […] In addition, secretion of HCV core antigen was detected in the supernatant of the DHHs infected by HCVser (FIG. 7C).

Compound | HCV infection in DHHs ([1]; ITX5061 1 μM) | HCV infection in DHHs ([1]; ITX5061 1 μM, listed as small molecule compound that inhibits the scavenger receptor class B type I (SR-) | HCV infection in DHHs ([1]; interferon-α 80 units/ml) | HCV infection in DHHs ([1]; interferon-α 80 units/ml, listed as IFN) | HCV core antigen in the supernatant of infected cells [2] | HCVser infection of DHHs detected by western blotting [3]
COc1c(NC(=O)C(=O)c2ccc(OCCN3CCOCC3)c3ccccc23)cc(C(C)(C)C)cc1NS(C)(=O)=O [ITX5061] | abolished HCV infection | efficiently blocked infection |  |  |  | 
interferon-α [IFN-α] |  |  | efficiently blocked infection | abolished HCV infection | not in that of the similarly infected but IFN-treated cells | sensitive to IFN inhibition
